Measured values taken from publication PMC7487798, “Glutaredoxin 1 Deficiency Leads to Microneme Protein-Mediated Growth Defects in Neospora caninum” (Frontiers in Microbiology, 2020).

Target: T1, NcGrx1 (rNcGrx1) (Neospora caninum, UniProt F0VCE0)
T1 construct: gene NCLIV_038390; recombinant NcGrx1; dithiol CPYC active site
Test: HED assay, coupled to glutathione reductase, NADPH consumption at […] nm
Type: biochemical
Conditions: 0.05-2 mM HED, 600 nM enzyme, 1 mM GSH, 200 μM NADPH, 100 mM potassium phosphate, 1 mM EDTA, pH 7.0, 25 °C; HED preincubated 3 min with GSH to form the mixed disulfide

T1 sequence (F0VCE0 entry or part of it): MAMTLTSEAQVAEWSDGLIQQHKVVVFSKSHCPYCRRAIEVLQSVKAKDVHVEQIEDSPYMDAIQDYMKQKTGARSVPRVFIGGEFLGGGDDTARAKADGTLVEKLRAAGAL

Structure (SMILES): OCCSSCCO [β-hydroxyethyl disulfide]
- Km: 208 ± 23.9 µM
